Test results as given in US4908363A, “Imidazole derivatives” (Hoffmann-La Roche Inc., priority 1987, dated 1990).

Experiments:
[1] = Inflammation-inhibiting activity in established Mycobacterium butyricum arthritis (paw volume, plasma fibrinogen, body weight); format: in vivo, male rats; conditions: by intubation each day over 7 days; for Paw volume change: vehicle 0.46 ± 0.08; for Body weight change: vehicle 13.2 ± 1.8; for Plasma Fibrinogen: vehicle 1233 ± 56
Method: Representative compounds of formula I were tested for their inflammation-inhibiting properties in the animal test described hereinafter:
0.1 ml of a 0.5% (weight/volume) suspension of heat-killed and dried Mycobacterium butyricum in heavy mineral oil, containing 0.2% digitionin, is injected into the base of the tail of male rats (120-140 g). The animals are housed individually and receive feed and water ad libitum. The thus-produced arthritis is allowed to develop without treatment during 21 days. Then on the one hand the body weight of the animals is determined and on the other hand the volumes of their two hind paws (by immersing the paws in a mercury plethysmograph up to the height of the lateral malleolus). Thereupon, the animals are divided into groups each comprising six animals in each case of approximately the same average volumes of the hind paws. The substance to be investigated is then administered to them by intubation each day over a period of 7 days. At the end of the treatment period, body weight and volumes of the hind paws are again determined and the changes over the treatment period is calculated. Subsequently, the animals are killed and plasma samples are removed from them in order to determine the fibrinogen in accordance with Exner et al., 1979 (Amer. J. Clin. Path.) after precipitation with ammonium sulfate.
The results determined for three representative compounds of formula I, in the animal test described hereinbefore, are set forth in the following Table I.

[2] = Acute toxicity, single oral administration; conditions: mouse, in vivo; single oral administration to mice
From the text: The following Table II contains data concerning the acute toxicity of the above three compounds (LD50 in the case of single oral administration to mice).

[3] = Edema-inhibiting properties in carrageen pleuritis; format: in vivo, male rats; conditions: 1 hour before and 5 hours after carrageen, 24 hours
Method: were tested for their edema-inhibiting properties in the animal test described hereinafter:
A pleuritis is produced in male rats (230-250 g), which receive feed and water ad libitum, by the injection of 0.2 ml of a 1% solution of carrageen in sterile, pyrogen-free sodium chloride solution into the right pleural cavity. The substance to be investigated, suspended in an aqueous vehicle (containing 0.5% carboxymethylcellulose, 0.9% sodium chloride, 0.37% Tween 80 and 0.86% benzyl alcohol), or the vehicle alone, are administered by intubation to the animals 1 hour before and 5 hours after the carrageen injection. Twenty-four (24) hours after the carrageen injection, the animals are killed by decapitation, left to bleed out and the pleural cavity is exposed by cutting through the ribs on both sides of the sternum. The exudate is removed from the pleural cavity by means of a pipette and its volume is determined. Thereupon, the pleural cavity is washed once with phosphate-buffered sodium chloride solution containing fetal bovine serum (1:1) and the wash solution is combined with the exudate. The total number of cells in the pleural cavity is determined using a "Coulter Counter" which is calibrated so that red blood corpuscles are not counted. Cell smears on glass plates can be produced directly from the exudate, fixed in methanol and colored for the differential counting of polymorphonuclear leucocytes (PMN) and macrophages; a total of 200 PMN and macrophages can be counted and the results expressed as a percentage of each type of cell present in the pleural exudate.

Row | SMILES | Paw volume change ([1]; 22 μmol/kg) [mL] | Body weight change ([1]; 22 μmol/kg) [g] | Plasma Fibrinogen ([1]; 22 μmol/kg) [mg/dL] | Paw volume change ([1]; 66 μmol/kg) [mL] | Body weight change ([1]; 66 μmol/kg) [g] | Plasma Fibrinogen ([1]; 66 μmol/kg) [mg/dL] | LD50 [2] [mg/kg] | % Chance compared with controls, Exudate volume ([3]; 30 mg/kg p.o.) [%] | % Chance compared with controls, Number of cells ([3]; 30 mg/kg p.o.) | % Chance compared with controls, Exudate volume ([3]; 50 mg/kg p.o.) [%] | % Chance compared with controls, Number of cells ([3]; 50 mg/kg p.o.) [%] | % Chance compared with controls, Exudate volume ([3]; 100 mg/kg p.o.) [%] | % Chance compared with controls, Number of cells ([3]; 100 mg/kg p.o.) [%]
1 | Cc1nccn1N=Cc1cc(C(C)(C)C)c(O)c(C(C)(C)C)c1 [B, 1-(4-hydroxy-3,5-di-tert.butylbenzylideneamino)-2-methylimidazole] | -0.77 ± 0.05 | 28.2 ± 1.4 | 405 ± 126 | -0.84 ± 0.12 | 35.3 ± 1.8 | 75 ± 15 | > 1000 | – | – | – | – | – | –
2 | CC(C)(C)c1cc(C=Nn2ccnc2)cc(C(C)(C)C)c1O [C, 1-(4-hydroxy-3,5-di-tert.-butylbenzylideneamino)imidazole] | – | – | – | -0.92 ± 0.08 | 31.2 ± 2.0 | 544 ± 97 | > 1000 | – | – | – | – | – | –
3 | CC(C)(C)c1cc(CNn2ccnc2)cc(C(C)(C)C)c1O [Compound A, 1-(4-Hydroxy-3,5-di-tert.butylbenzylamino)imidazole] | – | – | – | -0.18 ± 0.08 | 30.5 ± 1.2 | 1040 ± 75 | > 1000 | -51 | -12% | -60 | -14 | -68 | -23
4 | Cc1nccn1NCc1cc(C(C)(C)C)c(O)c(C(C)(C)C)c1 [D, 1-(4-hydroxy-3,5-di-tert.-butylbenzylamino)-2-methylimidazole] | – | – | – | – | – | – | – | -29 | -6% | – | – | -60 | -22
5 | CCCc1nccn1NCc1cc(C(C)(C)C)c(O)c(C(C)(C)C)c1 [E, 1-(4-hydroxy-3,5-di-tert.butylbenzylamino)-2-propylimidazole] | – | – | – | – | – | – | – | -39 | +4% | – | – | -73 | -21
